According to patent publication US20260083830A1, “BIODEGRADABLE POLYMERIC PARTICLES FOR DELIVERY OF POSITIVELY CHARGED THERAPEUTIC AGENTS” (REGENTS OF THE UNIVERSITY OF MICHIGAN, priority 2022, published 2026):

What was measured:
[1] = previous studies; cited from earlier work
[2] = system: EAE; assay: EAE murine model, intravenous versus subcutaneous administration of remote loaded nanoparticles (Example VIII); format: in vivo, C57BL/6J mice; conditions: 100 ug subcutaneous by the tail base; after 60 days
[3] = Net charge of peptide at neutral pH; format: physicochemical; conditions: owing to 2 Arginine residues
[4] = system: EAE; assay: EAE murine model, effects of remote loaded nanoparticles on Treg response, EAE scores (Example IX); format: in vivo, C57BL/6J mice; conditions: 10 ug subcutaneous by the tail base
Protocol: EAE was induced in a murine model as described in Example VIII. There were 3 treatment groups and one group that only received phosphate-buffered saline (PBS). For the treatment groups, 10 ug of self-antigen in 1 mL PBS was aliquoted from the MOG 38-50 loaded PLGA nanoparticles batch based on loading % determined by UPLC. The first treatment group received remote loaded nanoparticles injected subcutaneously by the tail base. The second treatment group received remote loaded nanoparticles injected intravenously in the tail. The third treatment group received 10 ug of free MOG 38-50 peptide injected subcutaneously by the tail base. EAE was assessed daily using the 0 to 5 clinical score scale described in Example VII.

Row | Compound | charge at neutral pH [1] | EAE clinical score [2] | charge [3] | EAE score ([4]; after day 8) | EAE score ([4]; day 8)
1 | C[C@@H](O)[C@@H]1NC(=O)[C@H](CCCCN)NC(=O)[C@@H](Cc2c[nH]c3ccccc23)NC(=O)[C@H](Cc2ccccc2)NC(=O)[C@@H](NC(=O)[C@H](N)Cc2ccccc2)CSSC[C@@H](C(=O)N[C@H](CO)[C@@H](C)O)NC1=O [octreotide] | ~+1.7 |  |  |  | 
2 | MOG 38-50 (GWYRSPFSRVVHL) [free MOG 38-50 peptide] |  | 3.5 | > +1 | ~3.0 | ~2.5
3 | CCNC(=O)[C@@H]1CCCN1C(=O)[C@H](CCCNC(=N)N)NC(=O)[C@H](CC(C)C)NC(=O)[C@@H](CC(C)C)NC(=O)[C@H](Cc1ccc(O)cc1)NC(=O)[C@H](CO)NC(=O)[C@H](Cc1c[nH]c2ccccc12)NC(=O)[C@H](Cc1c[nH]cn1)NC(=O)[C@@H]1CCC(=O)N1 [leuprolide] | ~+1 |  |  |  | 
